Laboratory results reported in PMC11645656, “MRGPRX4 mediates phospho-drug associated pruritus in a humanized mouse model” (Science translational medicine, 2024).
“And” between values parts separate entries of the source, which are not always exact repeats. Equal values may be shown once.

Assays:
[1] = target: T1, MRGPRX4 (S83) (Homo sapiens, UniProt Q96LA9, L83S); test: EC50 determination, intracellular calcium mobilization in MRGPRX4 stably expressed HEK293 cells (FLIPR Calcium 5, Flexstation-3); type: cell-based; set-up: Fig. 1D dose-response, calcium mobilization response (individual replicate) / calcium mobilization response (Fig. 1D dose-response raw data): unit not given here; conditions: individual replicate values, listed as Phenytoin Sodium; for Fig. 1D dose-response, calcium response at Concentration (M): phenytoin series
T1 construct: expressed in transfected cells
Procedure, shortened: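 HEK293 cells stably expressing receptor (parental HEK293 alongside) loaded with Calcium 5 dye in HBSS/20 mM HEPES, pH 7.4, 1 h at 37 °C, then compounds added. Response = peak minus pre-drug baseline, triplicates averaged; EC50 from 4PL fit.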

[2] = tested on: NP2-X4+ mice (MRGPRX4 in Mrgpra3+ NP2 sensory neurons); test: Itch behavioral study (scratching bouts after subcutaneous nape injection) in NP2-X4+ mice; type: in vivo, mouse
[3] = tested on: NP2-WT mice; test: Itch behavioral study (scratching bouts after subcutaneous nape injection) in littermate control NP2-WT mice; type: in vivo; conditions: 30 min after injection of 50 μl 10 mM into the nape, each cell one mouse
[4] = tested on: HTLA cells; test: PRESTO-Tango β-arrestin recruitment assay, parental HTLA cells without MRGPRX4 (control, fig. S1); type: cell-based
From the text: Supplement NIHMS2038790-supplement-table.xlsx, sheet "fig. S1" | column: Concentration (M)

[5] = IV, clinical trials; ref New Drug Application: 020450; cited from earlier work

T1 sequence (Q96LA9 whole entry L83S): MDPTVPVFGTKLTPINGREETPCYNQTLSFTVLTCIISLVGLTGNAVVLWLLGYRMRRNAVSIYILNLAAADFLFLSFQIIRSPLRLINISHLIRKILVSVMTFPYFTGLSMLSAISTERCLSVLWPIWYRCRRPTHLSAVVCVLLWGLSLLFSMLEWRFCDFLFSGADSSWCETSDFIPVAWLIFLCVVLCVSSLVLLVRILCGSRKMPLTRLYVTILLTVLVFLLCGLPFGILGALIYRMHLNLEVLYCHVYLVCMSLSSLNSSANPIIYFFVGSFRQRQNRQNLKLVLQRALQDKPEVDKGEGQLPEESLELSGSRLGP

For `O=C1NC(=O)C(c2ccccc2)(c2ccccc2)N1` [Phenytoin], which “Fig. 1D dose-response, calcium response at Concentration (M)” value (“Fig. 1D dose-response, calcium response” below) ([1]; 4.88281e-7 M) is on record?
Its value is -45.834 and -46.962 and -43.233.

And the “Fig. 1D dose-response, calcium response” value ([1]; 9.76563e-7 M)?
The value was -42.023 and -51.874 and -41.78.

And the “Fig. 1D dose-response, calcium response” value ([1]; 1.95313e-6 M)?
The value was -57.631 and -43.259 and -52.591.

And the “Fig. 1D dose-response, calcium response” value ([1]; 3.90625e-6 M)?
The value was -30.902 and -51.949 and -54.701.

What about the “Fig. 1D dose-response, calcium response” value ([1]; 7.8125e-6 M) of the same compound?
Its value is -36.341 and -24.025 and -23.478.

What about the “Fig. 1D dose-response, calcium response” value ([1]; 1.5625e-5 M) of the same compound?
The value was -24.49 and -31.993 and -24.486.

What about the “Fig. 1D dose-response, calcium response” value ([1]; 3.125e-5 M) of the same compound?
Its value is -42.34 and -14.448 and -21.073.

And the “Fig. 1D dose-response, calcium response” value ([1]; 6.25e-5 M)?
Its value is -29.178 and -38.728 and -12.364.

And the “Fig. 1D dose-response, calcium response” value ([1]; 0.00025 M)?
Its value is 21.7467 and 26.6867 and 14.9677.

What about the “Fig. 1D dose-response, calcium response” value ([1]; 0.0005 M) of the same compound?
Its value is -0.1003 and 34.5457 and 1.141.

And the “calcium mobilization response (Fig. 1D dose-response raw data)” value (shortened to “calcium mobilization response”) ([1]; concentration 4.88281e-7 M)?
Its value is -35.967 and -38.387 and -9.249 and -43.815 and -12.548 and -27.242.

And the “calcium mobilization response” value ([1]; concentration 9.76563e-7 M)?
The value was -3.6717 and 0.5703 and -1.3847 and -25.061 and -39.258 and -5.762.

And the “calcium mobilization response” value ([1]; concentration 1.95313e-6 M)?
Its value is -0.8477 and -0.3367 and -2.8407 and -17.925 and -29.096 and -31.733.

What about the “calcium mobilization response” value ([1]; concentration 3.90625e-6 M) of the same compound?
Its value is -4.2817 and -4.6827 and 7.036 and -45.513 and -21.585 and -2.642.

And the “calcium mobilization response” value ([1]; concentration 7.8125e-6 M)?
The value was -6.1147 and -5.4597 and 3.666 and -0.809 and -24.700 and -20.368.

What about the “calcium mobilization response” value ([1]; concentration 1.5625e-5 M) of the same compound?
Its value is -2.1987 and 5.167 and -0.3347 and -19.624 and -8.530 and -11.014.

And the “calcium mobilization response” value ([1]; concentration 3.125e-5 M)?
The value was -5.0347 and -1.5897 and 2.935 and -19.576 and -12.591 and -8.608.

And the “calcium mobilization response” value ([1]; concentration 6.25e-5 M)?
Its value is 13.7733 and 12.6223 and 5.79 and -9.327 and -10.716 and -3.999.

And the “calcium mobilization response” value ([1]; concentration 0.00025 M)?
Its value is 17.3763 and 20.0503 and 26.8243 and 17.981 and 21.189 and 24.656.

And the “calcium mobilization response” value ([1]; concentration 0.0005 M)?
The value was 40.1453 and 34.4913 and 26.1333 and 33.840 and 5.994 and 28.344.

What about the “Scratching / itch behavior, NP2-X4+ mice vs WT littermates” value ([2]; 50 μl 10 mM nape injection, 30 min) of the same compound?
The value was “no differences in itch behavior were detected”.

And the “Scratching bouts of individual animals” value ([2]; NP2-X4+, 30 min after injection of 50 μl 10 mM into the nape, each cell one mouse)?
The value was 6 and 0 and 19 and 1 (2×) and 14 and 16 and 21 and 12 and 20.

What about the “Scratching bouts of individual animals” value [3] of the same compound?
The value was 7 (2×) and 14 and 1 and 11 and 59 and 2 and 5 and 42 and 24.

And the “PRESTO-Tango response (fig. S1), single replicate” value (shortened to “PRESTO-Tango response (fig. S1)”) ([4]; concentration 4.88281e-6 M)?
Its value is 0.008545 and 0.005867 and 0.007953 and 0.006901 and 0.004547 and 0.009824.

And the “PRESTO-Tango response (fig. S1)” value ([4]; concentration 9.76563e-6 M)?
The value was 0.00741 and 0.01006 and 0.006055 and 0.01246 and 0.001908 and 0.0161.

What about the “PRESTO-Tango response (fig. S1)” value ([4]; concentration 1.95313e-5 M) of the same compound?
The value was 0.004145 and 0.01453 and 0.008851 and 0.01106 and 0.007187 and 0.01768.

And the “PRESTO-Tango response (fig. S1)” value ([4]; concentration 3.90625e-5 M)?
The value was 0.005318 and 0.007104 and 0.005862 and 0.009351 and 0.00878 and 0.001453.

And the “PRESTO-Tango response (fig. S1)” value ([4]; concentration 7.8125e-5 M)?
The value was 0.01242 and 0.005662 and 0.007299 and 0.009043 and 0.01323 and 0.004261.

And the “PRESTO-Tango response (fig. S1)” value ([4]; concentration 0.0003125 M)?
The value was 0.006045 and 0.003571 and 0.004631 and 0.006824 and 0.00263 and 0.004138.

And the “PRESTO-Tango response (fig. S1)” value ([4]; concentration 0.000625 M)?
Its value is 0.006823 and 0.004668 and 0.00481 and 0.009762 and 0.00692 and 0.01249.

And the “PRESTO-Tango response (fig. S1)” value ([4]; concentration 0.0025 M)?
The value was 0.006747 and 0.00542 and 0.005105 and 0.007273 and 0.002426 and 0.006102.

What about the “PRESTO-Tango response (fig. S1)” value ([4]; concentration 0.005 M) of the same compound?
Its value is 0.003966 and 0.00315 and 0.01104 and 0.009531 and 0.005922 and 0.01091.

And the “Patients who reported itch” value [5]?
Its value is 4.5%.
